Data taken from ChEMBL document CHEMBL3808359, “Conformational analysis of 2-substituted piperazines” (Bioorg Med Chem Lett, 2016).

Target: Neuronal acetylcholine receptor subunit alpha-7 (Homo sapiens, UniProt P36544)
Assay: Agonist activity at alpha7 nAChR (unknown origin)

Neuronal acetylcholine receptor subunit alpha-7, sequence (P36544 whole entry): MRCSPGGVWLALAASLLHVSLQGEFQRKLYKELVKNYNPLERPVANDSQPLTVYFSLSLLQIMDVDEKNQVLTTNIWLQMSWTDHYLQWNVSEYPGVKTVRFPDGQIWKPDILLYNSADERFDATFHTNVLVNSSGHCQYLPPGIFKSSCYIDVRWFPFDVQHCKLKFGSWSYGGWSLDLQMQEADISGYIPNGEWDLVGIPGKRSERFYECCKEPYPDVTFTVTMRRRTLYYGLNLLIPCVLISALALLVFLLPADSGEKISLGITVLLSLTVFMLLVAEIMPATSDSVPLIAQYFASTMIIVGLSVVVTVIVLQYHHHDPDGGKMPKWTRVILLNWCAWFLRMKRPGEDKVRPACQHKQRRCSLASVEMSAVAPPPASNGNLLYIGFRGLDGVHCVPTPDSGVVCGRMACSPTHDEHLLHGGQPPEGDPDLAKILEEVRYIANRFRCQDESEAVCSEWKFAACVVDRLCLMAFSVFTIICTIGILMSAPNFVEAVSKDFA

Compound	IC50
COc1ccc(OC(=O)N2CCNCC2CCc2cccnc2)cc1 (stereo not given)	> 5000 nM
c1cncc(OC[C@H]2CNCCN2c2nc3ncccc3o2)c1	6 nM
COc1ccc(NC(=O)N2CCNCC2COc2cccnc2)cc1 (stereo not given)	11 nM

The remaining lines, values ahead:

IC50	Compound
19 nM	COc1ccc(NC(=O)N2CCNC[C@@H]2COc2cccnc2)cc1
> 5000 nM	COc1ccc(NC(=O)N2CCNCC2CCc2cccnc2)cc1 (stereo not given)
